Results from ChEMBL document CHEMBL1201862, “PubChem BioAssay data set” (2004).
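Briefly, cells in 96-well plates were exposed to five compound concentrations for 48 h, and endpoints were estimated by linear interpolation. The concentration for 50% growth inhibition is given as GI50.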 The source made the active and inactive calls. Cut-off read from the data, not from the text of the source: active = GI50 up to about 1.1 µM and inactive = higher.

Key:
Assay in all cases: NCI anticancer screen, dose series, 48 h
[1] = system: LXFL 529
[2] = system: OVCAR-8
[3] = system: T47D
[4] = system: K562
[5] = system: NCI/ADR-RES
[6] = system: SR
[7] = system: 786-0
[8] = system: DU-145
[9] = system: CCRF-CEM
[10] = system: UACC-257
[11] = system: MDA-N
[12] = system: SK-OV-3
[13] = system: MDA-MB-435
[14] = system: KM12
[15] = system: HT-29
[16] = system: HOP-62
[17] = system: M14
[18] = system: UO-31
[19] = system: SK-MEL-28
[20] = system: RXF 393
[21] = system: NCI-H522
[22] = system: HOP-92
[23] = system: SN12C
[24] = system: IGROV-1
[25] = system: A498
[26] = system: RPMI-8226
[27] = system: PC-3
[28] = system: LOX IMVI
[29] = system: TK-10
[30] = system: SF-539
[31] = system: SW-620
[32] = system: Hs-578T
[33] = system: HCT-15
[34] = system: EKVX
[35] = system: NCI-H23
[36] = system: SK-MEL-2
[37] = system: COLO 205
[38] = system: HL-60
[39] = system: MDA-MB-231
[40] = system: SF-295
[41] = system: NCI-H226
[42] = system: OVCAR-4
[43] = system: OVCAR-5
[44] = system: A549
[45] = system: U-251
[46] = system: SNB-75
[47] = system: BT-549
[48] = system: HCC 2998
[49] = system: Malme-3M
[50] = system: HCT-116
[51] = system: SF-268
[52] = system: OVCAR-3
[53] = system: UACC-62
[54] = system: MCF7
[55] = system: MOLT-4
[56] = system: SK-MEL-5
[57] = system: SNB-19
[58] = system: ACHN
[59] = system: CAKI-1
[60] = system: NCI-H460

In the case of `CNc1nc(N(C)C)nc(N(C)C)n1` [PENTAMETHYL MELAMINE], the GI50 [1] is reported as > 100 µM (inactive).

With `O=c1c2cc(I)ccc2nc(SCc2n[nH]c(=S)o2)n1Cc1ccccc1` the GI50 [2] was 19.1 µM (inactive), the GI50 [3] was 14.8 µM (inactive) and the GI50 [4] was 14.4 µM (inactive). The GI50 [5] was 19.1 µM (inactive), the GI50 [6] was 20.5 µM (inactive) and the GI50 [7] was 16.7 µM (inactive). For the same molecule, the GI50 [8] was 16.3 µM (inactive), the GI50 [9] was 18.4 µM (inactive) and the GI50 [10] was 18.1 µM (inactive). For the same molecule, the GI50 [11] was 17.3 µM (inactive), the GI50 [12] was 23.4 µM (inactive) and the GI50 [13] was 19.3 µM (inactive). The GI50 [14] was 16.9 µM (inactive), the GI50 [15] was 22.3 µM (inactive) and the GI50 [16] was 19.1 µM (inactive). The GI50 [17] was 20.5 µM (inactive), the GI50 [18] was 0.741 µM (active) and the GI50 [19] was 17.5 µM (inactive). For the same molecule, the GI50 [20] was < 0.01 µM (active), the GI50 [21] was 14.2 µM (inactive) and the GI50 [22] was 14.3 µM (inactive). For the same molecule, the GI50 [23] was 14.1 µM (inactive), the GI50 [24] was 16.6 µM (inactive) and the GI50 [25] was 18.6 µM (inactive). The GI50 [26] was 16.3 µM (inactive), the GI50 [27] was 15.7 µM (inactive) and the GI50 [28] was 15.7 µM (inactive). The GI50 [29] was 21 µM (inactive), the GI50 [30] was 16.1 µM (inactive) and the GI50 [31] was 19.7 µM (inactive). For the same molecule, the GI50 [32] was 20.6 µM (inactive), the GI50 [33] was 17.3 µM and the GI50 [34] was 19.3 µM (inactive). The GI50 [35] was 16.3 µM (inactive), the GI50 [36] was 15.6 µM (inactive) and the GI50 [37] was 10.6 µM (inactive). For the same molecule, the GI50 [38] was 4.71 µM (inactive), the GI50 [39] was 17.3 µM (inactive) and the GI50 [40] was 17.3 µM (inactive). For the same molecule, the GI50 [41] was 11.1 µM (inactive), the GI50 [42] was 18.1 µM (inactive) and the GI50 [43] was 24.8 µM (inactive). For the same molecule, the GI50 [44] was 20.4 µM (inactive), the GI50 [45] was 17.6 µM (inactive) and the GI50 [46] was 4.78 µM (inactive). For the same molecule, the GI50 [47] was 18.9 µM (inactive), the GI50 [48] was 18.8 µM (inactive) and the GI50 [49] was 17.9 µM (inactive). The GI50 [50] was 16 µM (inactive), the GI50 [51] was 17.5 µM (inactive) and the GI50 [52] was 15.2 µM (inactive). The GI50 [53] was 12.5 µM (inactive), the GI50 [54] was 15.9 µM (inactive) and the GI50 [55] was 20.7 µM (inactive). The GI50 [56] was 13.2 µM (inactive), the GI50 [57] was 22.3 µM (inactive) and the GI50 [58] was 15.3 µM (inactive). For the same molecule, the GI50 [59] was 6.25 µM (inactive) and the GI50 [60] was 19.1 µM (inactive).
